The values that follow come from US20170095440A1, “METHOD OF TREATING CANINE PANCREATITIS” (CK9, LLC, priority 2014, published 2017).

“Also recorded” adds a separate entry of the source.

In series [1] the target is plasmin (Homo sapiens, UniProt P00747). The conditions noted are these: cited from earlier work.
The test system of series [2] is dogs with suspected chronic pancreatitis. The experiment in a line: Serum TGF-β1 before and after treatment, clinical trial. The format is in vivo, dog. The conditions noted are these: for Change in serum TGF-β1, pre- vs post-treatment (paired t-test): methanesulfonate. How it is done: (§1) Treatment effects on overall health status, quality of life, and clinical signs were also evaluated with serum biochemistry profiles, complete blood counts, and owner questionnaires.
Dogs were identified by screening current submissions to the Gastrointestinal Laboratory at Texas A&M indicative of pancreatitis (canine pancreas-specific lipase≧400 μg/L) using an immunoassay for measurement of canine pancreas-specific lipase in canine serum known as the spec CPL® Test (IDEXX, Laboratories). A number of potential study participants were directly referred to the investigator by veterinarians, based on positive pet-side SNAP cPL® Test (IDEXX Laboratories, Westbrook, Me., USA) results and concomitant clinical signs. After ascertaining individual suitability of a patient with the referring veterinarian, serum canine pancreas-specific lipase concentration, serum biochemistry profile, and complete blood count were evaluated or re-evaluated 12±4 days after collection of the initial sample submission to the Gastrointestinal Laboratory. Based on the assumption that consecutive canine pancreas-specific lipase elevations indicate chronic pancreatitis, enrollment was offered for patients with canine pancreas-specific lipase concentrations≧400 μg/L, serum triglyceride concentrations below 500 mg/dL, and no indication of hepatic, renal, or other organ disease. […] Owner consent was required prior to phlebotomy and for enrollment into the trial.
(§2) Twelve enrolled dogs received camostat capsules at a dosage of 4 mg/kg q 8 hrs, for a total dose of 12 mg/kg q 24 hrs. […] Individual patients were medicated for between 21 to 31 days.
(§3) Blood samples were collected before beginning the treatment and after completion of the treatment period. Complete blood count (red blood cell count, hematocrit, mean corpuscular volume, mean corpuscular hemoglobin, mean corpuscular hemoglobin concentration, differential and absolute white blood cell count, red blood cell count, hemoglobin, platelet estimate, red blood cell morphology, white blood cell morphology, and hemoparasites) was evaluated at the Texas Veterinary Medical Diagnostic Laboratory (TVMDL). A serum chemistry profile with electrolytes (glucose, blood urea nitrogen, creatinine, calcium, phosphorus, albumin, total protein, total bilirubin, alkaline phosphatase, alanine amino transferase, aspartate amino transferase, γ-glutamyl transferase, cholesterol, triglycerides, globuline, sodium, potassium, and chloride) was performed on a SIRRUS analyzer (Stanbio, Boerne, Tex., USA). Serum concentrations of cPL (RI: 0-200 μg/L; Spec cPL® IDEXX Laboratories, Westbrook, Me., USA), cTLI (RI: 5.7-45.2 μg/L; Canine TLI DOUBLE ANTIBODY®, Siemens Healthcare Diagnostics, Los Angeles, Calif., USA), cobalamin (RI: 251-908 ng/L), and folate (RI: 7.7-24.4 μg/L; Immulite 2000®, Siemens Healthcare Diagnostics Inc., Deerfield, Ill., USA), canine specific C-reactive protein (RI: 0-7.6 mg/L, Tridelta Development Limited, Maynooth, CO. Kildare, Ireland), S100A12 (RI: 56-331 μg/L, Gastrointestinal Laboratory in-house radioimmunoassay), and TGF-β1 (RI: 38-72 ng/mL; Quantikine® ELISA, R&D Systems, Minneapolis, […]., USA) were performed at the Gastrointestinal Lab at Texas A&M University.
(§4) Pre-treatment and post-treatment results for all diagnostic tests were statistically analyzed using Prism 6 (GraphPad Software, La Jolla, Calif., USA). The D'Agostino-Pearson omnibus test was used to evaluate all datasets for Gaussian distribution. Groups were compared using a paired t-test for normally-distributed data sets and a Wilcoxon matched-pairs test when Gaussian distribution could not be assumed. Mean values and standard deviation are reported for data sets with Gaussian distribution. Median and minimum/maximum values are reported for data sets where Gaussian distribution could not be assumed. The significance threshold was set at p=0.05.

Series [3] has as its system dogs. The conditions noted are these: 10, 30 and 100 mg/kg/day, oral capsules, 30-day study; cited from earlier work.
For series [4], the target named is trypsin (Homo sapiens, UniProt P07477). To be noted: cited from earlier work.
Series [5] deals with dogs with suspected chronic pancreatitis. Briefly: Adverse drug reactions, complete blood count and serum biochemistry profile, clinical trial. Type of series: in vivo, dog. How it is done: as §1, §2
Patients were treated at home and their overall health was monitored by their owners and the referring physician.
as §3, §4

Series [6] has the same test system. The experiment in a line: Serum S100A12 before and after treatment, clinical trial. The conditions noted are these: 8 mg/kg q 8 hrs, n=17. Type of series: in vivo, dog.

Chain of plasmin (P00747 581-810 limits assumed, species assumed): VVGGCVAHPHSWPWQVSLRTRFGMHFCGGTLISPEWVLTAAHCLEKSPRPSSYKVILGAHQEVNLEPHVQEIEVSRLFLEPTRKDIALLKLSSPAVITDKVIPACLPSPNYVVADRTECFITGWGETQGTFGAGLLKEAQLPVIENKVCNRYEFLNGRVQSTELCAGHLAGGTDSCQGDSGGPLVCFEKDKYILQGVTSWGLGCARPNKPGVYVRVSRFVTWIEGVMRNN
Chain of plasmin (P00747 97-580 partner limits assumed, species assumed): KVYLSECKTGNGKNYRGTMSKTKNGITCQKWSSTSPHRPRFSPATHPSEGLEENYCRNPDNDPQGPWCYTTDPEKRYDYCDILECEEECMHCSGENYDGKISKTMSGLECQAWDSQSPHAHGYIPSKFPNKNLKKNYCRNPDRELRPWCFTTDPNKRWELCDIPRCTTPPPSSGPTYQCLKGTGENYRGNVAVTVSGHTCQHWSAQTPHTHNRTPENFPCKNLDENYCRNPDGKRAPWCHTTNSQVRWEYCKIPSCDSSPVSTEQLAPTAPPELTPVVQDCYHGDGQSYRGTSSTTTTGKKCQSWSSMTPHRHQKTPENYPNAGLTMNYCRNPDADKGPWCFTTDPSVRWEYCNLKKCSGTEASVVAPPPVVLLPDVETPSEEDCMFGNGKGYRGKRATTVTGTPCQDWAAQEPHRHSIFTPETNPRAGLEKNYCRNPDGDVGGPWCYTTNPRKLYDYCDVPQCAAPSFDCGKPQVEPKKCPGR

Consider `CN(C)C(=O)COC(=O)Cc1ccc(OC(=O)c2ccc(NC(=N)N)cc2)cc1` [Camostat Mesilate, N,N-dimethylcarbamoylmethyl-4-(4-guanidinobenzoyloxy)phenylacetate methanesulfonate], for which the Anti-plasmin activity entry in series [1] is reported as “anti-plasmin activity”. The “Change in serum TGF-β1, pre- vs post-treatment (paired t-test)” value is “no significant difference; also recorded: did not change significantly” in series [2] (4 mg/kg q 8 hrs, n=12); “no significant difference; also recorded: did not change significantly” in series [2] (8 mg/kg q 8 hrs, n=17); “no statistically significant difference; also recorded: did not lead to any significant changes” in series [2] (all treated dogs combined, n=29, trend towards a decrease). Moreover, the “Serum TGF-β1 concentration post-treatment (mean)” value stood at 43 ng/mL in series [2] (4 mg/kg q 8 hrs, n=12, pre-treatment mean 45, post SD ±8, p=0.3679); 40 ng/mL in series [2] (8 mg/kg q 8 hrs, n=17, pre-treatment mean 47, post SD ±12, p=0.1686); 41 ng/mL in series [2] (all treated dogs combined, n=29, pre-treatment mean 46, post SD ±11, p=0.0986). Besides, the Toxicity findings result in series [3] is “no significant toxicities”. For the same compound, the Anti-trypsin activity result in series [4] is given as “pronounced anti-trypsin”. Further, the Adverse drug reactions entry in series [5] (4 mg/kg q 8 hrs, 12 dogs, reported in two dogs) is “increased flatulence”; in series [5] (8 mg/kg q 8 hrs, 17 dogs, each sign in one dog, methanesulfonate), “pruritus in one front paw; also recorded: increased flatulence”. In series [5] (all treated dogs), the “Complete blood count and serum biochemistry parameters, pre- vs post-treatment” value was “no statistically significant differences”. Besides, the “Increase in serum aspartate amino transferase activity after treatment” value in series [5] (another individual dog) stood at 6 fold. The Side effects overall entry in series [5] (both dosages (12 or 24 mg/kg q d), 26±5 days) is recorded as “very mild side effects”. In addition, the “Other clinical signs suggestive of an adverse drug reaction” value in series [5] (either group (4 or 8 mg/kg q 8 hrs)) was “No other clinical signs suggestive of an adverse drug reaction were observed”. For the same compound, the “Increase in serum γ-glutamyl transferase activity after treatment” value in series [5] (one individual dog) came out at 35 fold. Further, the “Increase in aspartate amino transferase activity after treatment” value in series [5] (one individual dog (same dog as the γ-glutamyl transferase increase)) is recorded as 6 fold. Further, the “Change in serum S100A12, pre- vs post-treatment” value in series [6] (methanesulfonate) was “no significant difference; also recorded: did not change significantly”. For the same compound, in series [6] (pre-treatment median 147, post range 58-746, p=0.8176), the “Serum S100A12 concentration post-treatment (median)” value was 148 µg/L.
